Measured values from patent publication US20250215012A1, “IKZF2 DEGRADERS AND USES THEREOF” (REGENTS OF THE UNIVERSITY OF MICHIGAN, priority 2022, published 2025).
Like-named read-outs stand apart in the source and are kept apart here.

Experiments:
[1] = target: GST-tagged wild-type human CRBN protein (Homo sapiens (Human), UniProt Q96SW2); experiment: Cereblon Binding Assay (Cisbio Cereblon Binding Kit, TR-FRET); conditions: about 3 hours at room temperature
Protocol: (§1) The binding to cereblon (CRBN) is determined using the Cereblon Binding Kit (Cisbio, #64BDCRBNPEG) following the manufacturer's instruction. Briefly, serially diluted compounds are incubated with GST-tagged wild-type human CRBN protein, XL665-labelled Thalidomide and Europium Cryptate labelled GST antibody.
as §1, with “(CRBN) was” for “(CRBN) is”, “compounds were” for “compounds are”, “GST antibody at room temperature for about 3 hours.” for “GST antibody.”

[2] = target: T1, IKZF2 (Homo sapiens (Human), UniProt Q96SW2+Q9UKS7); experiment: IKZF2 HiBiT Assay (Jurkat-IKZF2-HiBiT cell line); format: cell-based; conditions: Jurkat-IKZF2-HiBiT cells, 24 hours
In short: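 Jurkat cells carrying HiBiT-tagged IKZF2 were exposed to serially diluted compound for 24 h at 37 °C. Remaining IKZF2 was measured by Nano-Glo HiBiT lytic luminescence after 10-20 min at room temperature. Signal was normalized to DMSO, and IC50 came from a four-parameter variable-slope fit.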

[3] = target: His tagged CRBN+DDB−DLS7+CXU4 (Homo sapiens (Human), UniProt Q96SW2); experiment: IC50 Measurements for Binding to CRBN/DDBI (HTRF); conditions: Cy5-labeled Thalidomide probe, one hour incubation
[4] = target: T1, IKZF2; experiment: IKZF2 HiBit Assay (HEK293T Flp-in-HiBiT cells); format: cell-based; conditions: for DC50: read-out: IKZF2 HiBit degradation DC50; for Dmax: HEK-293T, read-out: IKZF2 HiBit degradation Dmax
In short: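 HEK293T Flp-in cells carrying CRISPR-inserted N-terminal HiBiT tag at the endogenous IKZF2 locus were treated with an 11-point, 3-fold dilution from 1 mM (stock) for 6 hrs; final DMSO 0.1%. HiBiT luminescence was detected after lysis with LgBiT/substrate reagent. DMSO-normalized curves gave 50% degradation concentration and Dmax.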

[5] = target: IKZF1 (Homo sapiens (Human), UniProt Q13422+Q96SW2); experiment: IKZF1 HiBit Assay (HEK293T Flp-in-HiBiT-IKZF1 stable cell line); format: cell-based; conditions: for DC50: read-out: IKZF1 HiBit degradation DC50; for Dmax: HEK-293T, read-out: IKZF1 HiBit degradation Dmax
In short: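 HEK293T Flp-in cells with CRISPR-inserted N-terminal HiBiT tag treated 6 h with 11-point threefold dilutions (0.1% DMSO). Nano-Glo HiBiT lytic luminescence normalised to DMSO gave the 50%-degradation concentration; Dmax taken as the luminescence range from highest to lowest concentration.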

[6] = HEK293T Flp-in-HiBiT cells, 6 hrs
[7] = HEK293T Flp-in-HiBiT-IKZF1 cells, 6 hrs

His tagged CRBN+DDB−DLS7+CXU4, sequence (Q96SW2 whole entry): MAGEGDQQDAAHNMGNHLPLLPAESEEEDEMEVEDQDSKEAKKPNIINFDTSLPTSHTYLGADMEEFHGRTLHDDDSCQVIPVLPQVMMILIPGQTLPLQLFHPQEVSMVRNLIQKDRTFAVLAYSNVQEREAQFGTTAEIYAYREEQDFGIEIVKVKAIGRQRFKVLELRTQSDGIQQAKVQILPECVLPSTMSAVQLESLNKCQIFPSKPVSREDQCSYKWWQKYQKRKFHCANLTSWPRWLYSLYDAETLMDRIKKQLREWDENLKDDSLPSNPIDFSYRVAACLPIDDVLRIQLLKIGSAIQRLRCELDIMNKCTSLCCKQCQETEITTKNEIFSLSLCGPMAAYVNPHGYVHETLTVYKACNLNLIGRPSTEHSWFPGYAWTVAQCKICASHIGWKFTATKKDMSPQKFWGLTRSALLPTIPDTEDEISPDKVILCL
His tagged CRBN+DDB−DLS7+CXU4, sequence (Q16531 whole entry partner): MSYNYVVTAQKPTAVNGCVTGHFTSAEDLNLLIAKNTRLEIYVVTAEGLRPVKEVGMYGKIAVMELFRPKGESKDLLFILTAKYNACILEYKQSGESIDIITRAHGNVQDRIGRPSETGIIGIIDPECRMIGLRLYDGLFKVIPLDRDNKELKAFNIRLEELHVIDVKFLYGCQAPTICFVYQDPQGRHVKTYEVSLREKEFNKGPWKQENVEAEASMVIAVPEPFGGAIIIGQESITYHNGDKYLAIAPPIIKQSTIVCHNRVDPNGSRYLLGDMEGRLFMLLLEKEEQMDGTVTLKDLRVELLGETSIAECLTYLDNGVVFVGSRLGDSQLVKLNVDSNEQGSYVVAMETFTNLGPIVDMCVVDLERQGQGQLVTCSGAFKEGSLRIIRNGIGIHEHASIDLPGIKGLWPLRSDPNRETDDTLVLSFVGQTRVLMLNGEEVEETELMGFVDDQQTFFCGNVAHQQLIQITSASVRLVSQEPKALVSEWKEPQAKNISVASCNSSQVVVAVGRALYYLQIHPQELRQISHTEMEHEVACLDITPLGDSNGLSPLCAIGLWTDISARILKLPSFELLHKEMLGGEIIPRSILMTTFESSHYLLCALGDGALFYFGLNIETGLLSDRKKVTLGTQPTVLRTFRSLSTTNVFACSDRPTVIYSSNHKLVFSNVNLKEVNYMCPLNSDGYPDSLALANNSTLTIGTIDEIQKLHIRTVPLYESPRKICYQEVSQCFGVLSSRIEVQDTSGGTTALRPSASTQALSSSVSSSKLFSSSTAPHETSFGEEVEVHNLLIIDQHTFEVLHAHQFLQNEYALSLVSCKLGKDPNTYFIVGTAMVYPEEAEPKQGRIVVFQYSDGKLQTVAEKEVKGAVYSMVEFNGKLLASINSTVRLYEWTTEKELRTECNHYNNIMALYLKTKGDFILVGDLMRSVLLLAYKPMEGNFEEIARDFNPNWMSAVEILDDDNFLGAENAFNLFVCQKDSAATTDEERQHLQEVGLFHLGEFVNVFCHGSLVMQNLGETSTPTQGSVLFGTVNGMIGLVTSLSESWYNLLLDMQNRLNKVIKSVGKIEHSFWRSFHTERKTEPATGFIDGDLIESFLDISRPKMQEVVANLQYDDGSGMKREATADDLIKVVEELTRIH
IKZF1, sequence (Q13422 whole entry): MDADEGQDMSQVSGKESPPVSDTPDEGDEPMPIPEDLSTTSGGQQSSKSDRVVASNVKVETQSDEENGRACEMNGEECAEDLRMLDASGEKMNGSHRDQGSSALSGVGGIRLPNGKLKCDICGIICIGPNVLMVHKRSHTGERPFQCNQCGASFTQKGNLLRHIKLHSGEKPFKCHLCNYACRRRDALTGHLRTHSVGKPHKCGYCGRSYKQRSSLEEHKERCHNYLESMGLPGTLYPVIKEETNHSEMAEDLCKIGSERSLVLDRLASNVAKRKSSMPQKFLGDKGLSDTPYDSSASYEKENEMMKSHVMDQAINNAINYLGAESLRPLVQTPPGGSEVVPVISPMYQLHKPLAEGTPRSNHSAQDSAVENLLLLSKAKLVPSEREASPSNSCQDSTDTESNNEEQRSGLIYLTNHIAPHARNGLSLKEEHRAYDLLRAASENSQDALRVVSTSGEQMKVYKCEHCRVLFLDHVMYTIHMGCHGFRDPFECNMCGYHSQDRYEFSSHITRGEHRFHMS
IKZF1, sequence (Q96SW2 whole entry): as the sequence (Q96SW2 whole entry) above
IKZF1, sequence (Q16531 whole entry partner): as the sequence (Q16531 whole entry partner) above
T1 sequence (Q9UKS7 whole entry): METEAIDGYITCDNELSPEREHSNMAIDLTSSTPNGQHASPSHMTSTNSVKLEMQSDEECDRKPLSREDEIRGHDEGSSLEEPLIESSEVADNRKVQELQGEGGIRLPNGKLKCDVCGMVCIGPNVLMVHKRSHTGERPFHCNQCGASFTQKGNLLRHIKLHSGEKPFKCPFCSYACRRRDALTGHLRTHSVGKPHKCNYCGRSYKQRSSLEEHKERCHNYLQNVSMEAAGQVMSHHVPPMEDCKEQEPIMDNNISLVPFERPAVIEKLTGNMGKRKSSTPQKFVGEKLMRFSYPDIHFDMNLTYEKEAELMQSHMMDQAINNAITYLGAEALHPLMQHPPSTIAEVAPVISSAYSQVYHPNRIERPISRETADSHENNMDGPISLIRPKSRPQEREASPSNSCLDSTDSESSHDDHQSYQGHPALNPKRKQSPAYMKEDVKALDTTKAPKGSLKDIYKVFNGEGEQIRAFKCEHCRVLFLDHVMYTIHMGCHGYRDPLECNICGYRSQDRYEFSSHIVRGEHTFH
T1 sequence (Q96SW2 whole entry): as the sequence (Q96SW2 whole entry) above
T1 sequence (Q16531 whole entry partner): as the sequence (Q16531 whole entry partner) above
GST-tagged wild-type human CRBN protein, sequence (Q96SW2 whole entry): as the sequence (Q96SW2 whole entry) above

SMILES	IC50 [1] [µM]	DC50 ([2]; read-out: HiBit assay degradation analysis DC50) [µM]	Dmax ([2]; read-out: HiBit assay degradation analysis Dmax) [%]	IC50 [3] [µM]	DC50 [4, 6] [µM]	Dmax [4, 6] [%]	DC50 [5, 7] [µM]	Dmax [5, 7] [%]	Dmax [4] [%]	Dmax [5] [%]
O=C1CCC(N2Cc3c(ccc4c3OCC43CCN(Cc4cccc(-c5cnn(C6COC6)c5)c4)CC3)C2=O)C(=O)N1 (centres unmarked) [Compound A161, 3-(1′-(3-(1-(oxetan-3-yl)-1H-pyrazol-4-yl)benzyl)-6-oxo-6,8-dihydro-2H,7H-spiro[furo[2,3-e]isoindole-3,4′-piperidin]-7-yl)piperidine-2,6-dione]	0.01 to 0.1	< 0.05	60 to 80	–	–	–	–	–	–	–
O=C1CC[C@H](N2Cc3c(ccc4c3OCC43CCN(Cc4cc(-c5ccc(Cl)cc5)no4)CC3)C2=O)C(=O)N1 [Compound B2, (S)-3-(1′-((3-(4-chlorophenyl)isoxazol-5-yl)methyl)-6-oxo-6,8-dihydro-2H,7H-spiro[furo[2,3-e]isoindole-3,4′-piperidin]-7-yl)piperidine-2,6-dione]	–	–	–	1 to 5	0.001 to 0.01	60 to 80	0.01 to 0.1	20 to 40	–	–
Cn1cc(-c2cccc(CN3CCC4(CC3)COc3c4cc(C#N)c4c3CN([C@H]3CCC(=O)NC3=O)C4=O)c2)cn1 [Compound B19, (S)-7-(2,6-dioxopiperidin-3-yl)-1′-(3-(1-methyl-1H-pyrazol-4-yl)benzyl)-6-oxo-7,8-dihydro-2H,6H-spiro[furo[2,3-e]isoindole-3,4′-piperidine]-5-carbonitrile]	–	–	–	1 to 5	0.1 to 1	40 to 60	> 1	< 20	–	–
O=C1CC[C@H](N2Cc3c(ccc4c3OCC43CCN(Cc4cccc5[nH]ncc45)CC3(F)F)C2=O)C(=O)N1 (stereo partly drawn) [Compound B41, (3S)-3-(1′-((1H-indazol-4-yl)methyl)-3′,3′-difluoro-6-oxo-6,8-dihydro-2H,7H-spiro[furo[2,3-e]isoindole-3,4′-piperidin]-7-yl)piperidine-2,6-dione]	–	–	–	0.1 to 0.5	0.001 to 0.01	60 to 80	0.01 to 0.1	20 to 40	–	–
O=C1CC[C@H](N2Cc3c(ccc4c3OCC43CCN(Cc4ccc5[nH]ncc5c4)CC3(F)F)C2=O)C(=O)N1 (stereo partly drawn) [Compound B40, (3S)-3-(1′-((1H-indazol-5-yl)methyl)-3′,3′-difluoro-6-oxo-6,8-dihydro-2H,7H-spiro[furo[2,3-e]isoindole-3,4′-piperidin]7-yl) piperidine-2,6-dione]	–	–	–	0.1 to 0.5	0.001 to 0.01	60 to 80	> 1	< 20	–	–
O=C1CC[C@H](N2Cc3c4c(cc(Cl)c3C2=O)C2(CCN(Cc3cccc5cn[nH]c35)CC2)CO4)C(=O)N1 [Compound B18, (S)-3-(1′-((1H-indazol-7-yl)methyl)-5-chloro-6-oxo-6,8-dihydro-2H,7H-spiro[furo[2,3-e]isoindole-3,4′-piperidin]-7-yl)piperidine-2,6-dione]	–	–	–	0.1 to 0.5	> 1	< 20	> 1	< 20	–	–
[2H]C([2H])(c1ccc2cn(C)nc2c1)N1CCC2(CC1)COc1c2ccc2c1CN([C@H]1CCC(=O)NC1=O)C2=O [Compound B7, (S)-3-(1′-((2-methyl-2H-indazol-6-yl)methyl-d2)-6-oxo-6,8-dihydro-2H,7H-spiro[furo[2,3-e]isoindole-3,4′-piperidin]-7-yl)piperidine-2,6-dione]	–	–	–	0.1 to 0.5	0.001 to 0.01	60 to 80	> 1	< 20	–	–
Cn1ncc2c(CN3CCC4(COc5c4ccc4c5CN([C@H]5CCC(=O)NC5=O)C4=O)C(F)(F)C3)cccc21 (stereo partly drawn) [Compound B43, (3S)-3-(3′,3′-difluoro-1′-((1-methyl-1H-indazol-4-yl)methyl)-6-oxo-6,8-dihydro-2H,7H-spiro[furo[2,3-e]isoindole-3,4′-piperidin]-7-yl)piperidine-2,6-dione]	–	–	–	1 to 5	0.001 to 0.01	60 to 80	> 1	< 20	–	–
Cn1cc2cccc(CN3CCC4(COc5c4ccc4c5CN([C@H]5CCC(=O)NC5=O)C4=O)C(F)(F)C3)c2n1 (stereo partly drawn) [Compound B36, (3S)-3-(3′,3′-difluoro-1′-((2-methyl-2H-indazol-7-yl)methyl)-6-oxo-6,8-dihydro-2H,7H-spiro[furo[2,3-e]isoindole-3,4′-piperidin]-7-yl)piperidine-2,6-dione]	–	–	–	0.1 to 0.5	0.001 to 0.01	60 to 80	< 0.001	20 to 40	–	–
[2H]C([2H])(c1ccc2cnn(C)c2c1)N1CCC2(CC1)COc1c2ccc2c1CN([C@H]1CCC(=O)NC1=O)C2=O [Compound B8, (S)-3-(1′-((1-methyl-1H-indazol-6-yl)methyl-d2)-6-oxo-6,8-dihydro-2H,7H-spiro[furo[2,3-e]isoindole-3,4′-piperidin]-7-yl)piperidine-2,6-dione]	–	–	–	0.1 to 0.5	0.001 to 0.01	–	> 1	–	60 to 80	< 20
O=C1CCC(N2Cc3c(ccc4c3OCC43CCN(Cc4ccccc4)CC3F)C2=O)C(=O)N1 (centres unmarked) [Compound B23, 3-(1′-benzyl-3′-fluoro-6-oxo-6,8-dihydro-2H,7H-spiro[furo[2,3-e]isoindole-3,4′-piperidin]-7-yl)piperidine-2,6-dione]	–	–	–	0.5 to 1	> 1	< 20	> 1	< 20	–	–
[2H]C([2H])([2H])n1cc(-c2cccc(CN3CCC4(CC3)COc3c4ccc4c3CN([C@H]3CCC(=O)NC3=O)C4=O)c2)cn1 [Compound B12, (S)-3-(1′-(3-(1-(methyl-d3)-1H-pyrazol-4-yl)benzyl)-6-oxo-6,8-dihydro-2H,7H-spiro[furo[2,3-e]isoindole-3,4′-piperidin]-7-yl)piperidine-2,6-dione]	–	–	–	0.1 to 0.5	0.001 to 0.01	> 80	> 1	< 20	–	–
O=C1CC[C@H](N2Cc3c(ccc4c3OCC43CCN(Cc4ccc5c(c4)CC(=O)N5)CC3(F)F)C2=O)C(=O)N1 (stereo partly drawn) [Compound B28, (3S)-3-(3′,3′-difluoro-6-oxo-1′-((2-oxoindolin-5-yl)methyl)-6,8-dihydro-2H,7H-spiro[furo[2,3-e]isoindole-3,4′-piperidin]-7-yl)piperidine-2,6-dione]	–	–	–	0.1 to 0.5	0.001 to 0.01	60 to 80	> 1	< 20	–	–
Cn1ncc2cc(CN3CCC4(COc5c4ccc4c5CN([C@H]5CCC(=O)NC5=O)C4=O)C(F)(F)C3)ccc21 (stereo partly drawn) [Compound B38, (3S)-3-(3′,3′-difluoro-1′-((1-methyl-1H-indazol-5-yl)methyl)-6-oxo-6,8-dihydro-2H,7H-spiro[furo[2,3-e]isoindole-3,4′-piperidin]-7-yl) piperidine-2,6-dione]	–	–	–	0.1 to 0.5	0.001 to 0.01	60 to 80	> 1	< 20	–	–
O=C1CC[C@H](N2Cc3c(ccc4c3OCC43CCN(Cc4cn(-c5ccc(Cl)cc5)nc4Cl)CC3)C2=O)C(=O)N1 [Compound B4, (S)-3-(1′-((3-chloro-1-(4-chlorophenyl)-1H-pyrazol-4-yl)methyl)-6-oxo-6,8-dihydro-2H,7H-spiro[furo[2,3-e]isoindole-3,4′-piperidin]-7-yl)piperidine-2,6-dione]	–	–	–	0.5 to 1	0.001 to 0.01	60 to 80	> 1	< 20	–	–
Cn1cc(-c2cccc(CN3CCC4(COc5c4ccc4c5CN([C@H]5CCC(=O)NC5=O)C4=O)C(F)(F)C3)c2)cn1 (stereo partly drawn) [Compound B39, (3S)-3-(3′,3′-difluoro-1′-(3-(1-methyl-1H-pyrazol-4-yl)benzyl)-6-oxo-6,8-dihydro-2H,7H-spiro[furo[2,3-e]isoindole-3,4′-piperidin]-7-yl) piperidine-2,6-dione]	–	–	–	0.1 to 0.5	< 0.001	60 to 80	> 1	< 20	–	–
[2H]C1([2H])Oc2c(ccc3c2CN(C2CCC(=O)NC2=O)C3=O)C12CCN(Cc1cccc(-c3cnn(C)c3)c1)CC2 (centres unmarked) [Compound B13, 3-(1′-(3-(1-methyl-1H-pyrazol-4-yl)benzyl)-6-oxo-6,8-dihydro-2H,7H spiro[furo[2,3-e]isoindole-3,4′-piperidin]-7-yl-2,2-d2)piperidine-2,6-dione]	–	–	–	0.1 to 0.5	0.001 to 0.01	60 to 80	> 1	< 20	–	–
